What was measured:
[1] = system: antibodies in sera from SARS patients (sera 1a, 1b, 2, 6, 37, 62, London, SARS-yellow, SARS-green); format: binding, human; parameters: Binding of serum 6 to linear peptides of protein X1 of SARS-CoV Urbani / Binding of serum 37 to linear peptides of protein X1 of SARS-CoV Urbani / Binding of serum 6 to looped/cyclic peptide (PEPSCAN-ELISA) / Binding of serum 37 to looped/cyclic peptide (PEPSCAN-ELISA) / Binding of serum 37 to looped/cyclic peptides of protein X1 of SARS-CoV Urbani / Binding of serum 6 to linear peptides of protein X2 / Binding of serum 37 to linear peptides of protein X2 / Binding of serum 37 to looped/cyclic peptides of protein X2 of SARS-CoV Urbani / Binding of serum 6 to linear peptides of protein M of SARS-CoV Urbani / Binding of serum 37 to linear peptides of protein M of SARS-CoV Urbani / Binding of serum 6 to looped/cyclic peptides of protein M of SARS-CoV Urbani / Binding of serum 37 to looped/cyclic peptides of protein M of SARS-CoV Urbani / Binding of serum 6 to linear peptides of protein X3 of SARS-CoV Urbani / Binding of serum 37 to linear peptides of protein X3 of SARS-CoV Urbani / Binding of serum 37 to looped/cyclic peptides of protein X3 of SARS-CoV Urbani / Binding of serum 6 to linear peptides of protein X4 of SARS-CoV Urbani / Binding of serum 37 to linear peptides of protein X4 of SARS-CoV Urbani / Binding of serum 37 to looped/cyclic peptides of protein X4 of SARS-CoV Urbani / Binding of serum 6 to linear peptides of protein X5 of SARS-CoV Urbani / Binding of serum 37 to linear peptides of protein X5 of SARS-CoV Urbani / Binding of serum 37 to looped/cyclic peptides of protein X5 of SARS-CoV Urbani / Binding of serum 6 to linear peptides of protein N of SARS-CoV Urbani / Binding of serum 37 to linear peptides of protein N of SARS-CoV Urbani / Binding of serum 6 to linear peptide (PEPSCAN-ELISA) / Binding of serum 1a to looped/cyclic peptides of protein N of SARS-CoV Urbani / Binding of serum 1b to looped/cyclic peptides of protein N of SARS-CoV Urbani / Binding of serum 2 to looped/cyclic peptides of protein N of SARS-CoV Urbani / Binding of serum 6 to looped/cyclic peptides of protein N of SARS-CoV Urbani / Binding of serum 37 to looped/cyclic peptides of protein N of SARS-CoV Urbani / Binding of serum 62 to looped/cyclic peptides of protein N of SARS-CoV Urbani / Binding of serum London to looped/cyclic peptides of protein N of SARS-CoV Urbani / Binding of serum SARS-green to looped/cyclic peptides of protein N of SARS-CoV Urbani: unit not given here
[2] = system: control sera (pooled serum of ten healthy LUMC hospital workers; commercial negative donor pooled serum from the Dutch bloodbank); format: binding, human; parameters: Binding of Control serum LUMC to linear peptides / Binding of Control serum Blood-bank to linear peptides / Binding of Control serum LUMC to looped peptides / Binding of Control Serum Blood-Bank to Looped peptides / Binding of Control serum LUMC to linear peptides of the protein M of SARS-CoV Urbani / Binding of Control serum Blood-bank to linear peptides of the protein M of SARS-CoV Urbani / Binding of Control serum LUMC to looped peptides of the protein M of SARS-CoV Urbani / Binding of Control Serum Blood-Bank to Looped peptides of the protein M of SARS-CoV Urbani: unit not given here
[3] = system: rabbit serum obtained by immunizing a rabbit with the SARS-CoV strain Frankfurt 1; format: binding; parameters: Binding of a rabbit serum to linear peptides / Binding of a rabbit serum to looped peptides / Rabbit serum linear peptides / Rabbit serum looped peptides / Binding of a rabbit serum to linear peptides of protein N of SARS-CoV Urbani (Rabbit serum linear peptides) / Binding of a rabbit serum to looped/cyclic peptides of protein N of SARS-CoV Urbani (Rabbit serum looped peptides): unit not given here

Row | Sequence | Binding of serum 1a to linear peptides of protein X1 of SARS-CoV Urbani [1] | Binding of serum 1a to looped/cyclic peptides of protein X1 of SARS-CoV Urbani [1] | Binding of serum 1b to linear peptides of protein X1 of SARS-CoV Urbani [1] | Binding of serum 1b to looped/cyclic peptides of protein X1 of SARS-CoV Urbani [1] | Binding of serum 2 to linear peptides of protein X1 of SARS-CoV Urbani [1] | Binding of serum 2 to looped/cyclic peptides of protein X1 of SARS-CoV Urbani [1] | Binding of serum 6 to linear peptides of protein X1 of SARS-CoV Urbani [1] | Binding of serum 6 to looped/cyclic peptides of protein X1 of SARS-CoV Urbani [1] | Binding of serum 37 to linear peptides of protein X1 of SARS-CoV Urbani [1] | Binding of serum 37 to looped/cyclic peptides of protein X1 of SARS-CoV Urbani [1] | Binding of serum 62 to linear peptides of protein X1 of SARS-CoV Urbani [1] | Binding of serum 62 to looped/cyclic peptides of protein X1 of SARS-CoV Urbani [1] | Binding of serum London to linear peptides of protein X1 of SARS-CoV Urbani [1] | Binding of serum London to looped/cyclic peptides of protein X1 of SARS-CoV Urbani [1] | Binding of serum SARS-green to linear peptides of protein X1 of SARS-CoV Urbani [1] | Binding of serum SARS-green to looped/cyclic peptides of protein X1 of SARS-CoV Urbani [1] | Binding of Control Serum Blood-Bank to Looped peptides [2] | Binding of Control serum Blood-bank to linear peptides [2] | Binding of Control serum LUMC to linear peptides [2] | Binding of Control serum LUMC to looped peptides [2] | other results
1 | YNSVTDTIVVTEGDG | 0.6 | 0.4 | 0.5 | 0.3 | 0.4 | 0.2 | 0.4 | 0.2 | 0.5 | 0.4 | 0.5 | 0.3 | 0.2 | 0.2 | 0.3 | 0.3 | 0.3 | 0.4 | 0.4 | 0.4 | Binding of serum SARS-yellow to linear peptides of protein X1 of SARS-CoV Urbani [1]: 0.4; Binding of serum SARS-yellow to looped/cyclic peptides of protein X1 of SARS-CoV Urbani [1]: 0.3; Binding of a rabbit serum to linear peptides [3]: 0.1; Binding of a rabbit serum to looped peptides [3]: 0.5
2 | YQLESTQITTDTGIE | 0.6 | 0.4 | 0.5 | 0.3 | 0.4 | 0.1 | 0.5 | 0.1 | 0.6 | 0.3 | 0.5 | 0.3 | 0.2 | 0.1 | 0.4 | 0.2 | 0.3 | 0.4 | 0.4 | 0.4 | Binding of serum SARS-yellow to linear peptides of protein X1 of SARS-CoV Urbani [1]: 0.5; Binding of serum SARS-yellow to looped/cyclic peptides of protein X1 of SARS-CoV Urbani [1]: 0.2; Binding of a rabbit serum to linear peptides [3]: 0.1; Binding of a rabbit serum to looped peptides [3]: 0.4
3 | YQLRARSVSPKLFIR | – | – | – | – | – | – | – | – | – | – | – | – | – | – | – | – | 0.7 | 0.6 | 0.6 | 0.7 | Binding of serum 1a to linear peptides of protein X4 of SARS-CoV Urbani [1]: 0.7; Binding of serum 1a to looped/cyclic peptides of protein X4 of SARS-CoV Urbani [1]: 0.7; Binding of serum 1b to linear peptides of protein X4 of SARS-CoV Urbani [1]: 0.6; Binding of serum 1b to looped/cyclic peptides of protein X4 of SARS-CoV Urbani [1]: 0.4; Binding of serum 2 to linear peptides of protein X4 of SARS-CoV Urbani [1]: 0.6; Binding of serum 2 to looped/cyclic peptides of protein X4 of SARS-CoV Urbani [1]: 0.6; Binding of serum 6 to linear peptides of protein X4 of SARS-CoV Urbani [1]: 0.7; Binding of serum 6 to looped/cyclic peptides of protein X4 of SARS-CoV Urbani [1]: 1.2; Binding of serum 37 to linear peptides of protein X4 of SARS-CoV Urbani [1]: 0.8; Binding of serum 37 to looped/cyclic peptides of protein X4 of SARS-CoV Urbani [1]: 0.7; Binding of serum 62 to linear peptides of protein X4 of SARS-CoV Urbani [1]: 0.7; Binding of serum 62 to looped/cyclic peptides of protein X4 of SARS-CoV Urbani [1]: 0.6; Binding of serum London to linear peptides of protein X4 of SARS-CoV Urbani [1]: 0.8; Binding of serum London to looped/cyclic peptides of protein X4 of SARS-CoV Urbani [1]: 1.4; Binding of serum SARS-green to linear peptides of protein X4 of SARS-CoV Urbani [1]: 0.7; Binding of serum SARS-green to looped/cyclic peptides of protein X4 of SARS-CoV Urbani [1]: 0.4; Binding of serum SARS-yellow to linear peptides of protein X4 of SARS-CoV Urbani [1]: 0.6; Binding of serum SARS-yellow to looped/cyclic peptides of protein X4 of SARS-CoV Urbani [1]: 0.9; Recognition of the peptide by the rabbit serum [3]: recognized
